Legend:
[1] = system: Macrophage-like RAW cells; assay: Structure function: inhibition of LPS (4 ng/ml)-stimulated TNF release; format: cell-based, murine; details: full range of the dose-response curve
RAW cells = assay: Cyclic-AMP production in RAW cells; format: cell-based, murine; details: FIG. 8

| Substance | activity in suppressing TNF release relative to MECO-1 [1] | stimulation of cAMP production (RAW cells) |
| --- | --- | --- |
| EFG-2: C-terminus of human mitochondrial EF-G2: TLTSGSATFALELSTYQAMNPQDQNTLLNRRSGLT (listed as Homo sapiens) | as active as MECO-1 | – |
| adrenocorticotropic hormone (SYSMEHFRWGKPVGKKRRPVKVYPNGAEDESAEAFPLEF; mammalian melanocortin ACTH (1-39)) [obtained from Bachem Bioscience] | – | dose-dependent fashion |
